Patent publication US7056693B2 (priority 1998, dated 2006)

Tested on: National Cancer Institute's 60 cell line
Format: cell-based

2-(2′-amino-3′-methoxyphenyl)-oxanaphthalen-4-one [PDO9859]
Activity profile in the 60 cell line database compared with LF: activity profile that is similar to LF
